Test system: patients with acute manic (including mixed) episode, bipolar I disorder
Experiment: Study BIA-2093-203: 3-week double-blind, randomised, placebo-controlled, dose-titration study in acute mania
Format: in vivo, human
Details: for YMRS score absolute change from V2 (1 Day) to V7 (21 Days), Mean ± SD / YMRS score absolute change from V2 (1 Day) to V7 (21 Days), Median (range): ITT
Protocol: Two 3-week multicentre, double-blind, randomised, placebo-controlled studies in acute mania (study BIA-2093-203: dose titrated by response, eslicarbazepine acetate (ESL) 600-1800 mg or 800-2400 mg, once-daily; study BIA-2093-204: fixed doses of 600, 1200 and 1800 mg, once-daily) were followed by a recurrence prevention study consisting of a 2-week open-label period (900 mg, once-daily) continued by a double-blind, parallel-group, fixed dose (300, 900 and 1800 mg, once-daily) period for a minimum of 6 months. The primary endpoint was change in Young Mania Rating Scale (YMRS) in studies BIA-2093-203 and BIA-2093-204, and the proportion of no worsening patients in the Clinical Global Impressions-Bipolar Version (CGI-BP) in study BIA-2093-205.
Study BIA-2093-203 (EudraCT No 2005-002131-27) followed a multicentre, double-blind, randomised, parallel-group, placebo-controlled, dose-titration design.
This study was conducted at 23 centres across Europe. Patients were randomised (3:3:2) to one of the following treatment groups: (1) ESL starting with 800 mg once daily (QD) and up-titrated in 800 mg steps until 2400 mg QD (maximum dose) according to clinical response, (2) ESL starting with 600 mg QD and up-titrated in 600 mg steps until 1800 mg QD (maximum dose) according to clinical response, and (3) Placebo QD. Patients were followed for up to 3 weeks. The study schedule consisted of a screening visit (V1), randomisation visit (V2, Day 1), and subsequent visits to evaluate clinical response (V3, Day 4; V4, Day 7; V5, Day 10; V6, Day 14 and V7, Day 21). In patients showing no improvement of symptoms, the dose of study medication was increased every 3 days until the maximum doses were reached. […] At the end of the 3-week treatment period, patients who responded to treatment had the option of entering the recurrence prevention study (Study BIA-2093-205).
Studies BIA-2093-203 and BIA-2093-204 enrolled patients with ages ≧18 years, currently displaying an acute manic (including mixed) episode and with a documented diagnosis of bipolar I disorder according to the DSM-IV criteria (2). Eligible patients should have a Young Mania Rating Scale (YMRS) total score ≧20, with symptoms of the current manic episode starting within two weeks prior to randomization. Patients were excluded if they had history of schizophrenia or schizoaffective disorder, psychotic features or rapid cycling. Patients were also excluded if they were treated with carbamazepine, oxcarbazepine or a depot-neuroleptic. Previous treatment with ESL or history of unresponsiveness, intolerance or hypersensitivity to other dibenzazepine compounds (carbamazepine, oxcarbazepine or licarbazepine) also constituted criteria for exclusion. Patients with clinical relevant risk of harm to self or others and history of substance abuse were also excluded. Women were excluded if they were pregnant or breast-feeding, or if of childbearing potential they were unable to use double-barrier contraception.
The following validated instruments were used: YMRS (20), the Clinical Global Impressions-Bipolar Version (CGI-BP) scale (21) and the Montgomery-Åsberg Depression Rating Scale (MADRS) (22). The YMRS score is the sum of 11 scoring items, ranging from 0 to 60 points; higher scores indicate higher mania symptomatology (20). The CGI-BP scale measures severity and treatment-related improvement in mania, depression and overall illness categories. It comprises 3 scales: severity of illness (1—normal to 7—very severely ill, in which 3—mildly ill was used as cut-off value for statistical analysis), change from preceding phase and worst phase (1—very much improved to 7—very much worse, and 8—not applicable) (21). The MADRS score is calculated as the sum of the 10 scoring items, ranging from 0 to 60 points: higher scores indicate higher depression symptomatology (22). […]

[1] = ESL 600 mg (600-1800 mg QD titrated), n = 63
[2] = ESL 800 mg (800-2400 mg QD titrated), n = 57
[3] = ESL 800 mg, n = 57, only study 203

CC(=O)O[C@H]1Cc2ccccc2N(C(N)=O)c2ccccc21 [ESL, (S)-10-acetoxy-10,11-dihydro-5H-dibenz[b,f]azepine-5-carboxamide]
MADRS scores under treatment with ESL as compared to placebo (ANCOVA showed no significant difference between the treatment groups at visit 7): apparent improvement
absolute difference between ESL treatment group and placebo for the YMRS total score (ESL 600 mg): 2.2
YMRS score absolute change from V2 (1 Day) to V7 (21 Days), Mean ± SD [1]: −12.2 ± 7.9
YMRS score absolute change from V2 (1 Day) to V7 (21 Days), Median (range) [1]: −14.0 (−25.0, 14.0)
CGI-BP score changes for mania and overall bipolar illness compared to placebo (ESL 600 mg group, from worst phase only): significant improvement
absolute difference between ESL treatment group and placebo for the YMRS total score (ESL 800 mg): 4.0
YMRS score absolute change from V2 (1 Day) to V7 (21 Days), Mean ± SD [2]: −14.1 ± 8.9
YMRS score absolute change from V2 (1 Day) to V7 (21 Days), Median (range) [2]: −16.0 (−33.0, 22.0)
CGI-BP score changes for mania and overall bipolar illness compared to placebo (ESL 800 mg group, from preceding and worst phase): significant improvement
proportion of patients in V7 classified as normal (CGI-BP severity of illness scale) vs placebo (ESL 800 mg group, mania and overall bipolar illness): significant differences
Any Adverse Events [3]: 29 (50.9) Number (%) of patients
Diarrhoea [3]: 2 (3.5) Number (%) of patients
Dizziness [3]: 5 (8.8) Number (%) of patients
Headache [3]: 5 (8.8) Number (%) of patients
Nausea [3]: 4 (7.0) Number (%) of patients
Paraesthesia oral [3]: 0 (0.0) Number (%) of patients
Somnolence [3]: 1 (1.8) Number (%) of patients
Vomiting [3]: 2 (3.5) Number (%) of patients
reduction in YMRS total score as compared with placebo, statistical significance (ESL 600-1800 mg and ESL 800-2400 mg groups): None of the treatment groups showed a reduction in YMRS total score as compared with placebo that was statistically significant
proportion of patients in full remission (YMRS score <12) at V7 compared to the placebo group (ESL 800-2400 mg group): significantly higher proportion of patients were in full remission
response rate (≧50% improvement or <12 points in the YMRS score) (ESL 800-2400 mg group): 66.7%
reduction in YMRS total score (ESL 800-2400 mg vs placebo −10.3 (p=0.0523)): −14.2
